Reference: PMC11232385, “Selective depletion of HBV-infected hepatocytes by class A capsid assembly modulators requires high levels of intrahepatic HBV core protein” (Antimicrobial Agents and Chemotherapy, 2024)
Like-named read-outs stand apart in the source and are kept apart here.

What was measured:
HBV [1] = system: HBV; parameters: method as in doi:10.1016/S0168-8278(20)32197-8; conditions: cited from earlier work
HBV genotype D = test: Antiviral activity in HBV-infected PHH, drugs added day 3 post infection, 6 days of treatment; format: cell-based, Hepatitis B virus
Protocol: (§1) Cryopreserved PHHs isolated from multiple donors were purchased from Thermo Fisher Scientific (Waltham, MA), Bioreclamation IVT (Hicksville, NY), or Lonza (USA). PHH culturing conditions as previously described ([11]). Approximately 24 h after plating, PHH was infected with HepAD38-derived HBV virions ([36]) (genotype D virus) at 500 viral genome equivalents per cell in a maintenance medium supplemented with 4% PEG 8000 (Promega, Madison, WI; V3011). The infection was allowed to proceed for 20–24 h before removing remaining extracellular virions by washing with a maintenance medium three times.
Extracellular HBsAg and HBeAg were detected in culture media by an electrochemiluminescence assay (Meso Scale Discovery [MSD]) as previously described ([37]).
Extracellular HBV DNA from PHH supernatants was purified using the Qiagen DNeasy 96 kit (69582) following the protocol recommended by the manufacturer. Quantification of HBV DNA by qPCR amplification of the HBV X region of the genome was performed as previously reported ([11]).
(§2) Antiviral activity or cytotoxicity of each test compound was determined from, extracellular HBV DNA, HBeAg, HBsAg, and alamarBlue data by comparing compound-treated PHH to DMSO-treated PHH to generate a percent of DMSO control value (% DMSO control). The % DMSO control was calculated by the following equation: % DMSO Control = 100× (XC/XD) where XC is the signal from the compound-treated PHH, and XD is the signal from the DMSO-treated PHH. The percentage of DMSO control for HBV DNA, HBeAg, HBsAg, and alamarBlue was plotted vs the log of each compound concentration in GraphPad Prism (version 6; GraphPad Software, La Jolla, CA) to generate dose-response curves. […] Error bars represent SD. Statistical analyses were performed by two-way analysis of variance (ANOVA) and Pearson’s correlation tests.

AAV-HBV (HBV genotype D) = test: Efficacy study in the AAV-HBV mouse model; format: in vivo, C57BL/6 mice; conditions: for serum ALT: during 56 days of treatment; for serum HBV DNA reduction / reduction of HBc-positive cells in the liver / HBeAg reduction / HBsAg reduction: end of treatment (day 56); for serum HBV DNA reduction: oral QD; for reduction of HBc-positive cells in the liver: immunofluorescence; for HBeAg reduction / HBsAg reduction: relative to vehicle
Protocol: Recombinant AAV (serotype 8) carrying the 1.3 copy HBV genome (genotype D; serotype ayw) and empty AAV were provided by Beijing FivePlus Molecular Medicine Institute (Beijing, China). C57BL/6 mice were provided by Shanghai Lingchang Bio Tech Co. Ltd (Shanghai, China). Studies were conducted by Covance Pharmaceutical R&D (Shanghai, China). All procedures implemented during the studies followed local animal welfare legislation, Covance global policies and procedures, and the Guide for the Care and Use of Laboratory Animals.
C57BL/6 mice (male; 4–5 weeks of age) were injected with 200 µL PBS containing 1 × 10^11 vge recombinant virus per mouse through the tail vein. Twenty-eight days after AAV-HBV injection, the mice were bled retro-orbitally to monitor HBsAg and HBV genomic DNA in serum. Based on the HBsAg, HBeAg, and HBV DNA levels and body weight, AAV-HBV-infected mice were selected and randomized into groups (six animals per group) for compound and/or siRNA treatment. […] LNP empty and LNP siRNA 3 mg/kg were injected intravenously at 4 mL/kg on dosing days 0, 14, 28, 42, and 56. […] Serum HBsAg, HBeAg, and HBV DNA were measured twice weekly. ALT was measured once weekly throughout the study. Serum HBsAg and HBeAg were determined by […] i2000 (Abbott Laboratories, Lake Bluff, IL, USA). Serum HBV-DNA was analyzed by ABI7500 (Applied Biosystems, Foster City, CA, USA) and a detection kit (Sansure Biotech Inc., Changsha, Hunan, China). Serum ALT was determined using Roche Cobas 6000 Chemistry Analyzer (Roche Diagnostics, Mannheim, Germany) and supporting reagents.
(§3) Dewaxing and unmasking of antigens were performed on a Bond RX autostainer (Leica Biosystem), and subsequent assay modified for a single round of staining was performed using the Opal technology workflow (Akoya Biosciences), as described previously ([39]).

HBV cccDNA = conditions: cited from earlier work
HBV genotype C = format: in vivo, uPA-SCID mice; conditions: uPA-SCID mouse; for mean decrease of serum HBV DNA: compared to the vehicle, 84 days oral QD; for HBsAg decline: day 84 vs day 0
Protocol: General health observations including weight were monitored weekly. All animal protocols were performed in accordance with the Guide for the Care and Use of Laboratory Animals and approved by the Animal Welfare Committee of Phoenix Bio Co., Ltd. All mice were housed individually and maintained in accordance with the Animal Ethics Committee of PhoenixBio (resolution #2214).
HBV-infected mice were randomized into four different treatment groups based on body weight, blood human albumin (h-Alb), and serum HBV DNA concentrations. All mice had blood h-Alb levels above 12 mg/mL and serum HBV DNA levels above 6.8 × 10^8 copies/mL. […] Mice were followed for an additional 28 days following cessation of treatment at day 84. Mouse serum was monitored weekly for serum HBV DNA and HBV antigens and biweekly for human (h) ALT1. Serum HBsAg and HBeAg concentrations were determined by SRL, Inc. (Tokyo, Japan) based on Chemiluminescent Enzyme Immuno Assay. HBV DNA concentration was performed using the TaqMan Fast Advanced Master Mix (Applied Biosystems, Thermo Fisher Scientific Inc.) and Applied Biosystems 7500 Real-Time PCR System (Applied Biosystems). Serum h-ALT1 concentration was determined by the Institute of Immunology Co., Ltd. (Tokyo, Japan) based on Enzyme-Linked ImmunoSorbent Assay.
as §3

[2] = AAV-HBV mouse, 100 mg-eq/kg oral QD
[3] = uPA-SCID mouse, 100 mg-eq/kg oral QD
PHH = test: Cytotoxicity (alamarBlue) in HBV-infected PHH, 6 days of treatment; format: cell-based, human
Protocol: as §1, §2

HBV [4] = system: HBV; parameters: method as in doi:10.1016/S0168-8278(22)00964-3, doi:10.1016/S0168-8278(22)02029-3; conditions: treatment-naïve and NA-suppressed patients, with an NA; cited from earlier work

For `CCOC(=O)C1=C(CN2CCOCC2)NC(c2nccs2)=NC1c1ccc(F)cc1Br` (stereo not shown) [GLS4], the HBsAg reduction (HBV [1]; treatment-naïve HBeAg-positive patients) is given as 0.4 log10 IU/mL and the HBsAg effect (HBV [1]; virally suppressed patients) is given as “no effect”.
For `CNC(=O)C1(NC(=O)C(=O)c2c(C)c(C(=O)Nc3ccc(F)c(F)c3)n3c2CCC3)CC(F)(F)C1` [GS-SBA-1P], the EC50 (HBV genotype D; extracellular HBV DNA, mean ± SD, read-out: Viral DNA EC50) was 12 ± 1.2 nM, the EC50 (HBV genotype D; read-out: HBeAg EC50) was greater than 2000 nM and the EC50 (HBV genotype D; read-out: HBsAg EC50) was greater than 2000 nM. The “serum ALT” value (AAV-HBV (HBV genotype D)) was “no changes”, the “serum HBV DNA reduction” value (AAV-HBV (HBV genotype D)) was 3.7 log10 and the “reduction of HBc-positive cells in the liver” value (“reduction … in the liver” below) (AAV-HBV (HBV genotype D)) was “minimal reduction”. For the same molecule, the HBeAg reduction (AAV-HBV (HBV genotype D)) was “no changes”, the HBsAg reduction (AAV-HBV (HBV genotype D)) was “no changes” and the “concentration blocking cccDNA establishment over the HBV DNA plasma-adjusted EC50” value (HBV cccDNA) was “six-fold”. The “mean decrease of serum HBV DNA” value (HBV genotype C) was 5.0 log10, the HBsAg decline (HBV genotype C) was 0.4 log10 and the “reduction … in the liver” value (HBV genotype C; immunofluorescence, compared to vehicle or TAF-treated animals) was 30%. For the same molecule, the “plasma and liver concentrations over the paEC50” value [2] was “approximately 76 fold”, the “plasma exposures over the mouse plasma-adjusted EC50 of HBV DNA production” value [3] was “greater than 76 fold” and the CC50 (PHH) was greater than 2000 nM.
For `CCOC(=O)C1=C(CN2CCN3C(=O)N(CC(C)(C)C(=O)O)C[C@@H]3C2)N=C(c2nccs2)N[C@H]1c1cccc(F)c1C` [RG7907], the HBsAg reduction (HBV [4]) is given as “no significant reduction of HBsAg”.
With `CC(C)OC(=O)[C@H](C)N[P@](=O)(CO[C@H](C)Cn1cnc2c(N)ncnc21)Oc1ccccc1` [TAF, tenofovir alafenamide] the “serum ALT” value (AAV-HBV (HBV genotype D)) was “no changes”, the “serum HBV DNA reduction” value (AAV-HBV (HBV genotype D)) was 2.5 log10 and the “reduction … in the liver” value (AAV-HBV (HBV genotype D)) was “no change”. For the same molecule, the HBeAg reduction (AAV-HBV (HBV genotype D)) was “no changes”, the HBsAg reduction (AAV-HBV (HBV genotype D)) was “no changes” and the “mean decrease of serum HBV DNA” value (HBV genotype C) was 3.6 log10. The HBsAg decline (HBV genotype C) was 0.35 log10.
